Measurements taken from publication PMC7614775 (Nature chemical biology, 2022).
“Also recorded” adds a separate entry of the source.

Columns and labels:
[1] = system: IL-2-stimulated STAT5 phosphorylation; assay: Phospho-STAT western blot in human PBMCs; type: cell-based; settings: 0.1–1 µM
IL-12-STAT4 signaling = assay: Phospho-STAT western blot in mouse splenocytes; type: cell-based
[2] = system: IFNα-stimulated STAT1 phosphorylation; assay: Phospho-STAT western blot in human PBMCs; type: cell-based; settings: 0.1 µM
[3] = system: IFNγ-stimulated STAT1 phosphorylation; assay: Phospho-STAT western blot in 22Rv1 cells expressing JAK1 variants; type: cell-based, human
[4] = system: IL-6-stimulated STAT3 phosphorylation; assay: Phospho-STAT western blot in mouse splenocytes; type: cell-based
[5] = target: JAK1 phosphorylation (pJAK1; Y1034/Y1035) (Homo sapiens, UniProt P23458); assay: JAK1 phosphorylation western blot in 22Rv1 cells expressing JAK1 variants; type: cell-based; settings: WT- and C810A-JAK1
JAK1 phosphorylation (pJAK1; Y1034/Y1035) (Homo sapiens, UniProt P23458), sequence (P23458 whole entry): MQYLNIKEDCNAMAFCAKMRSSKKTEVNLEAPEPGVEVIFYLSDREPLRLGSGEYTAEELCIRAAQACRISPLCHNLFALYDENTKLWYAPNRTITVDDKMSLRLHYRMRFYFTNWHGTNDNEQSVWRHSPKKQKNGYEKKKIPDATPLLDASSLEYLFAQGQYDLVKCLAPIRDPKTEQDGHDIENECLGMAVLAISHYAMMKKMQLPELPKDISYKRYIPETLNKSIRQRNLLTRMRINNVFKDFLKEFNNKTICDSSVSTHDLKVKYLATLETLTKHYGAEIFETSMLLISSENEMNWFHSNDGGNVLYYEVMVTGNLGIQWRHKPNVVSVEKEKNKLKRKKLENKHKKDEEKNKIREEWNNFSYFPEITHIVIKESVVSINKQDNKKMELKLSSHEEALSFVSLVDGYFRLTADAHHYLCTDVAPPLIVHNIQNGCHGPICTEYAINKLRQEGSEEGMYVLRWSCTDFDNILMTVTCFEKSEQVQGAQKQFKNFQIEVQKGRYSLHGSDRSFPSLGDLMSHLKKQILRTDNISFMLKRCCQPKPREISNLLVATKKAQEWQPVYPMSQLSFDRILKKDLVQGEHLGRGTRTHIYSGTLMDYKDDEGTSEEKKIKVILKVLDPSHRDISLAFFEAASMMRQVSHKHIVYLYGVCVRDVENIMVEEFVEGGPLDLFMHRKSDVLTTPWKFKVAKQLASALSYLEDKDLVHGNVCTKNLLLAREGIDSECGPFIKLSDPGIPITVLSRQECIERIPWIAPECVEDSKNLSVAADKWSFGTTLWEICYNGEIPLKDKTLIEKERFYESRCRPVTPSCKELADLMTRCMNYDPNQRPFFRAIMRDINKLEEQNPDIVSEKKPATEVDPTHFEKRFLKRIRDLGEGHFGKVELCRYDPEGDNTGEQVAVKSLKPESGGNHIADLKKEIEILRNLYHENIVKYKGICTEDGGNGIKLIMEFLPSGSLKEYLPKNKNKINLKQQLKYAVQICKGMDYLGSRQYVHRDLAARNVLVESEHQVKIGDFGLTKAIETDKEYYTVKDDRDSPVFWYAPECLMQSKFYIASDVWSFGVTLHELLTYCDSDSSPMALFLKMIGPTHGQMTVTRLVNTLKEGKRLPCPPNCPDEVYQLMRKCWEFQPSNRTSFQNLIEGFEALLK

[6] = target: JAK1 phosphorylation (pJAK1; Y1034/Y1035) (Homo sapiens, UniProt P23458, C817A); assay: as above; type: cell-based; settings: C817A-JAK1; 2 µM, 2 h
JAK1 phosphorylation (pJAK1; Y1034/Y1035) (Homo sapiens, UniProt P23458, C817A), sequence (P23458 whole entry C817A, the tested form may be a part): as the sequence (P23458 whole entry) above, with C817A counted along it

[7] = target: recombinant purified JAK1 (aa 438 – 1154) (Homo sapiens, UniProt P23458); assay: In vitro kinase (peptide substrate, ADP-Glo) assay; type: biochemical
recombinant purified JAK1 (aa 438 – 1154), sequence (P23458 438-1154): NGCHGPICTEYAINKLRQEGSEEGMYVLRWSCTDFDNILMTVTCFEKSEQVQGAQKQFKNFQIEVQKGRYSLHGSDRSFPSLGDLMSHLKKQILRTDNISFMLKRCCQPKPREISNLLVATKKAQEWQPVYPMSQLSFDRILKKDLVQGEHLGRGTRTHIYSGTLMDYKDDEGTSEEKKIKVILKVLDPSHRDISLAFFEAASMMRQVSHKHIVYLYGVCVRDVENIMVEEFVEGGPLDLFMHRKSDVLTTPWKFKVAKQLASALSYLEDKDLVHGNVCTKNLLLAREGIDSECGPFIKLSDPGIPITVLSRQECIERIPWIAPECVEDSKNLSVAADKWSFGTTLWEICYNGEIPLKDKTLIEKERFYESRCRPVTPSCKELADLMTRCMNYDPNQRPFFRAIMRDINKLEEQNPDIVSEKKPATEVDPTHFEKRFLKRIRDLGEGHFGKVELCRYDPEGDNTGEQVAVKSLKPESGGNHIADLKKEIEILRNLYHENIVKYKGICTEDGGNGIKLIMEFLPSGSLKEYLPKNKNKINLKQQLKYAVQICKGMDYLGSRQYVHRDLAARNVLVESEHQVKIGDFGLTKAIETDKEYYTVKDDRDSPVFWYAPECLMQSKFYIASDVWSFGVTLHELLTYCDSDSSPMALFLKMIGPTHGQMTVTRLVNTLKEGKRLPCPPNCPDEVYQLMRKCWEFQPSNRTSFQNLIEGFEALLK

[8] = target: recombinant TYK2 (WT, C838A) (Homo sapiens, UniProt P29597); assay: Gel-based ABPP in 22Rv1 cells; type: binding; settings: pre-treatment 0.01–1 μM, 2 h, in situ
recombinant TYK2 (WT, C838A), sequence (P29597 whole entry C838A): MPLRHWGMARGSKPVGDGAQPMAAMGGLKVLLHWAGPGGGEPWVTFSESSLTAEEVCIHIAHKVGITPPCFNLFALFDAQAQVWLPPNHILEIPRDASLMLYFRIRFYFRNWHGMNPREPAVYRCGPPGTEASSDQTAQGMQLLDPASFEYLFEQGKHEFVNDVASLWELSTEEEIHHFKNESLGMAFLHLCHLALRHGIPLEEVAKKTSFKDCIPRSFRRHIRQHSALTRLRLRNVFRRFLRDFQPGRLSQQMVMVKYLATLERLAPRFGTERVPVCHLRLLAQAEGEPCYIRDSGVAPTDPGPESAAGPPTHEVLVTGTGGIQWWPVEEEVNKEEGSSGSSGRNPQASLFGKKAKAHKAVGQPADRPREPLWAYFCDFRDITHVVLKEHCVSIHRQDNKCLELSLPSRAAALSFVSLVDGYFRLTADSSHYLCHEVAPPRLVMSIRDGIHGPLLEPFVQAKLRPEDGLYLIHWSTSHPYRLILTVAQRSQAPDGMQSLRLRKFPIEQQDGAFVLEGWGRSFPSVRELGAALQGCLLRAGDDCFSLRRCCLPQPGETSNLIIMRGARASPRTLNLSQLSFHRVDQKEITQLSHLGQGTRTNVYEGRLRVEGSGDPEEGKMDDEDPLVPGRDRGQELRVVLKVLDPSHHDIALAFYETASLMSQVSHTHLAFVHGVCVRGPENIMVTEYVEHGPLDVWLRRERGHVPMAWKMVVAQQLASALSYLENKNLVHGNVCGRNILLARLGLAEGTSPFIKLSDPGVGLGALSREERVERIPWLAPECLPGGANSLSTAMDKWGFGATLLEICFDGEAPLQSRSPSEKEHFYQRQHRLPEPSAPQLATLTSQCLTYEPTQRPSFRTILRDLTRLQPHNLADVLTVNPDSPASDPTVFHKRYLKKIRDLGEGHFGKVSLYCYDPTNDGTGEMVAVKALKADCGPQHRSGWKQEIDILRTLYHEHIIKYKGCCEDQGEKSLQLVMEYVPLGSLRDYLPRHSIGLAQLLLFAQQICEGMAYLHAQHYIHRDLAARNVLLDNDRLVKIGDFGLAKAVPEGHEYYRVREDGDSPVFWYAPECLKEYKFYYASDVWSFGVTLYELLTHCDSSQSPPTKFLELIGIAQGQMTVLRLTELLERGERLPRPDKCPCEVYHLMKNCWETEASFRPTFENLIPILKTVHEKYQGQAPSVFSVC

[9] = system: IL-2-dependent STAT5 phosphorylation; assay: Phospho-STAT western blot in mouse splenocytes; type: cell-based; settings: 0.01–0.1 µM
[10] = system: IFNα-stimulated STAT1 phosphorylation; assay: Phospho-STAT western blot in 22Rv1 cells expressing JAK1 variants; type: cell-based, human
JAK1_C817 = JAK1_C817 (Homo sapiens, UniProt P23458); assay: Untargeted cysteine MS-ABPP, human PBMCs treated in situ; type: binding
JAK1_C817, sequence (P23458 whole entry): as the sequence (P23458 whole entry) above

[11] = system: GM-CSF stimulated STAT5 phosphorylation (JAK2-dependent); assay: Phospho-STAT western blot in human PBMCs; type: cell-based; settings: compound 2 h, GM-CSF 15 min
[12] = system: IFNα-stimulated human PBMCs; assay: Multiplex immunoassay of cytokines/chemokines; type: cell-based; settings: compound 2 h, then IFNα 100 ng/mL, 16 h
[13] = system: IL-6-stimulated STAT3 phosphorylation; assay: Phospho-STAT western blot in human PBMCs; type: cell-based; settings: 0.1 µM
GM-CSF-STAT5 signaling = assay: Phospho-STAT western blot in mouse splenocytes; type: cell-based

blockade of JAK1 phosphorylation (maximal activity) ([5]; 0.05 µM): > 90% | effect on constitutive JAK1 phosphorylation ([5]; 2 µM, 2 h): completely blocked | effect on constitutive JAK1 phosphorylation [6]: did not affect | effect on catalytic activity of recombinant purified JAK1 ([7]; peptide substrate assay): did not inhibit | IC50 ([7]; read-out: IC50, JAK1 substrate assay, 30 min preincubation, IRS-1 peptide, ATP 50 µM, 1 h): > 50 µM | competition of probe 6 reactivity with WT-TYK2 [8]: blocked probe 6 reactivity | %Engagement (JAK1_C817; 0.01 µM): 84% | Engagement Ratio (DMSO/VVD-118313) (JAK1_C817; 0.01 µM): 6.3 | Engagement Ratio (DMSO/VVD-118313) (JAK1_C817; 0.1 µM): 20.0 | %Engagement (JAK1_C817; 1 µM): 96% | Engagement Ratio (DMSO/VVD-118313) (JAK1_C817; 1 µM): 20.0 | %Engagement (JAK1_C817; 10 µM): 97% | Engagement Ratio (DMSO/VVD-118313) (JAK1_C817; 10 µM): 20.0
Structure (SMILES): CS(=O)(=O)N1CC[C@H](C#CC(=O)N2CCC[C@@H](c3ccc(Cl)c(Cl)c3)C2)C1 [VVD-118313]
inhibition of IL-2-stimulated STAT5 phosphorylation [1]: ~ 70% | effect on IL-12-STAT4 signaling (IL-12-STAT4 signaling): sparing | inhibition of IFNα-stimulated STAT1 phosphorylation [2]: > 85% | blockade of IFNγ-stimulated STAT1 phosphorylation ([3]; K908E-JAK1-expressing 22Rv1 cells): ~ 40% | blockade of IFNγ-stimulated STAT1 phosphorylation ([3]; K908E/C817A-JAK1-expressing 22Rv1 cells): not observed | effect on IFNγ-stimulated STAT1 phosphorylation ([3]; WT-JAK1 transfected 22Rv1 cells, 1 μM, 2 h): Neither VVD-118313 nor the TYK2 inhibitor BMS-986165 altered | effect on IL-6-dependent STAT3 phosphorylation ([4]; Tyk2−/− splenocytes): fully blocked | effect on IL-6-stimulated STAT3 phosphorylation ([4]; WT mouse splenocytes): did not inhibit | effect on IL-2-dependent STAT5 phosphorylation [9]: inhibited | inhibition of IFNα-STAT1 phosphorylation ([10]; C817A-JAK1-expressing 22Rv1 cells, up to 2 µM): < 10% | effect on IFNα-stimulated pSTAT1 ([10]; WT- or C810A-JAK1-expressing 22Rv1 cells, 2 µM, 2 h): blocked | maximal inhibition of IFNα-STAT1 phosphorylation ([10]; WT- or C810A-JAK1-expressing 22Rv1 cells, at ~0.2 µM): > 80% | effect on GM-CSF stimulated STAT5 phosphorylation [11]: no effect; also recorded: modest inhibitory effects | induction of pro-inflammatory chemokines (CCL2/MCP-1, CXCL10/IP-10, CCL4/MIP-1β) [12]: near-completely suppressed | inhibition of IL-6-stimulated STAT3 phosphorylation [13]: > 85% | effect on GM-CSF-STAT5 signaling (GM-CSF-STAT5 signaling): sparing
